The source of these data is PMC10482942, “Novel quinazoline-1,2,3-triazole hybrids with anticancer and MET kinase targeting properties” (Scientific Reports, 2023).

For data set [1], the system named is AsPC-1 cells. Nature of the data set: SRB antiproliferative assay, monolayer culture. Conditions: mean ± S.E.M. Type of data set: cell-based, human. On the procedure:
(§1) EBC-1 (human lung […] cells with MET gene amplification) and Mia-Paca-2 (human PDAC cells) were obtained from Japanese Collection of Research Bio Resources Cell Bank (JCRB). AsPC-1 (human PDAC), MKN-45 (human gastric adenocarcinoma cells with MET gene amplification), HT-29 (human colorectal adenocarcinoma), and K562 cells (human chronic myelogenous leukemia) were obtained from the Iranian Biological Resource Centre, Tehran, Iran. AsPC-1, EBC-1, MKN-45, and K562 cells were cultured in RPMI 1640 medium containing 10% heat-inactivated fetal bovine serum (FBS) and 1% penicillin/streptomycin. Mia-Paca-2 and HT-29 cells were grown in DMEM low glucose, containing 10% and 20% heat-inactivated FBS, resoectively and 100 U/ml penicillin/streptomycin. All cells were grown in monolayer cultures at 37 °C in a humidified incubator with 5% CO2.
(§2) Antiproliferative effects of synthetic compounds were evaluated by the SRB assay as described previously. Cancer cells were trypsinized, homogenous cell suspensions were prepared and 100 µl of cell suspensions were cultured at the densities of 5 × 10^4 cells/ml (for AsPC-1 and Mia-Paca-2), 4 × 10^4 cells/m (for EBC-1 and MKN-45), 3 × 10^4 cells/ml (for K562) and 1 × 10^4 cells/ml (for HT-29) in 96-well flat-bottom plates. After 24 h of incubation to allow cells to attach and resume optimal growth, the synthetic compounds dissolved in DMSO and diluted in the growth medium were added. One hundred µl of synthesized derivatives were added at different concentrations in triplicate and incubated for an additional 72 h at 37 °C. The cells were then fixed by gentle addition of 50 μl cold trichloroacetic acid (TCA) 50% (w/v, 10% final concentration) and incubated for 60 min at 4 °C. Then, the supernatant was discarded, and the plates were washed four times with distilled water and air dried. Afterwards, 100 μl of SRB solution 0.04% (w/v) dissolved in 1% acetic acid was added to each well, and plates were incubated for 15 min at room temperature. At the next step, the unbound dye was removed by washing four times with 1% acetic acid and the plates were air dried. The bound stain was finally solubilized with 150 μl of 10 mM Tris base solution, and the absorbance was recorded at a wavelength of 540 nm with a Bio-Tek microplate reader (Model Synergy HTX).
(The SRB assay estimates cell density from bound dye.)

Data set [2] concerns Mia-Paca-2 cells. Nature of the data set: SRB antiproliferative assay, monolayer culture. Conditions: mean ± S.E.M. It is filed as cell-based, human. On the procedure: as §1, §2
Data set [3] relates to EBC-1 cells. Nature of the data set: SRB antiproliferative assay, monolayer culture. Type of data set: cell-based, human. Particulars: mean ± S.E.M. On the procedure: as §1, §2
In data set [4] the test system is MKN-45 cells. Nature of the data set: SRB antiproliferative assay, monolayer culture. It is filed as cell-based, human. Particulars: mean ± S.E.M. On the procedure:
as §1, §2

Data set [5] deals with K562 cells. Nature of the data set: SRB antiproliferative assay, monolayer culture. It is filed as cell-based, human. Conditions: mean ± S.E.M. On the procedure: as §1, §2
Data set [6] deals with HT-29 cells. Nature of the data set: SRB antiproliferative assay, monolayer culture. It is filed as cell-based, human. Particulars: mean ± S.E.M. On the procedure:
as §1, §2

Usually IC50 stands for the concentration that gives 50% inhibition. Regarding `COc1cc2nccc(Oc3ccc(NC(=O)C4(C(=O)Nc5ccc(F)cc5)CC4)cc3)c2cc1OC` [Cabozantinib, reference compound], the IC50 in data set [1] (Homo sapiens, ASPC1, 72 h) stood at 1.4 ± 0.1 µM; in data set [2] (Homo sapiens, MIA PaCa-2, 72 h), 3.8 ± 0.6 µM; in data set [3] (Homo sapiens, EBC-1, 72 h), 0.059 ± 0.014 µM; in data set [4] (Homo sapiens, MKN-45, 72 h), 1.04 ± 0.06 µM; in data set [5] (Homo sapiens, K562, 72 h), 4 ± 1 µM; in data set [6] (Homo sapiens, HT-29, 72 h), 3.7 ± 0.67 µM.
The term melting point denotes the temperature of the solid-liquid transition. `Brc1ccc(Cn2cc(COc3ccc(C=NNc4ncnc5ccccc45)cc3)nn2)cc1` [Compound 8a, 2-(4-((1-(4-Bromobenzyl)-1H-1,2,3-triazol-4-yl)methoxy)benzylidene)-1-(quinazolin-4-yl)hydrazine]: the melting point is 207.3 °C. The IC50 in data set [1] (Homo sapiens, ASPC1, 72 h) was greater than 100 µM. In addition, the IC50 in data set [2] (Homo sapiens, MIA PaCa-2, 72 h) is greater than 100 µM. Besides, the IC50 in data set [3] (Homo sapiens, EBC-1, 72 h) was greater than 100 µM. Further, the IC50 in data set [4] (Homo sapiens, MKN-45, 72 h) is greater than 100 µM. The 50% inhibitory concentration (IC50) in data set [5] (Homo sapiens, K562, 72 h) came out at 57.4 ± 21.9 µM. For the same molecule, the IC50 in data set [6] (Homo sapiens, HT-29, 72 h) is greater than 100 µM.
In the case of `Fc1ccc(Cn2cc(COc3ccc(C=NNc4ncnc5ccccc45)cc3)nn2)cc1` [Compound 8b, 2-(4-((1-(4-Fluorobenzyl)-1H-1,2,3-triazol-4-yl)methoxy)benzylidene)-1-(quinazolin-4-yl)hydrazine], the melting point is 204.9 °C. In data set [1] (Homo sapiens, ASPC1, 72 h), the IC50 was greater than 100 µM. For the same molecule, the IC50 in data set [2] (Homo sapiens, MIA PaCa-2, 72 h) is greater than 100 µM. Moreover, in data set [3] (Homo sapiens, EBC-1, 72 h), the IC50 was greater than 100 µM. In addition, in data set [4] (Homo sapiens, MKN-45, 72 h), the IC50 was greater than 100 µM. The IC50 in data set [5] (Homo sapiens, K562, 72 h) is greater than 100 µM. Moreover, in data set [6] (Homo sapiens, HT-29, 72 h), the IC50 is greater than 100 µM.
`Clc1ccc(Cn2cc(COc3ccc(C=NNc4ncnc5ccccc45)cc3)nn2)cc1Cl` [Compound 8d, 2-(4-((1-(3,4-Dichlorobenzyl)-1H-1,2,3-triazol-4-yl)methoxy)benzylidene)-1-(quinazolin-4-yl)hydrazine] showed a melting point of 224.6 °C. In data set [1] (Homo sapiens, ASPC1, 72 h), the IC50 was greater than 100 µM. Moreover, the IC50 in data set [2] (Homo sapiens, MIA PaCa-2, 72 h) was greater than 100 µM. Besides, the IC50 in data set [3] (Homo sapiens, EBC-1, 72 h) is greater than 100 µM. In data set [4] (Homo sapiens, MKN-45, 72 h), the IC50 was found to be 83.6 ± 6 µM. In addition, in data set [5] (Homo sapiens, K562, 72 h), the IC50 is greater than 100 µM. In addition, the IC50 in data set [6] (Homo sapiens, HT-29, 72 h) was 93.4 ± 2.2 µM.
As to `Clc1ccc(Cn2cc(COc3ccc(C=NNc4ncnc5ccccc45)cc3)nn2)cc1` [Compound 8e, 2-(4-((1-(4-Chlorobenzyl)-1H-1,2,3-triazol-4-yl)methoxy)benzylidene)-1-(quinazolin-4-yl)hydrazine], the IC50 in data set [1] (Homo sapiens, ASPC1, 72 h) was greater than 100 µM; in data set [2] (Homo sapiens, MIA PaCa-2, 72 h) it was greater than 100 µM; in data set [3] (Homo sapiens, EBC-1, 72 h) it was greater than 100 µM; in data set [4] (Homo sapiens, MKN-45, 72 h) it was greater than 100 µM; in data set [5] (Homo sapiens, K562, 72 h) it was 61.5 ± 21.6 µM; in data set [6] (Homo sapiens, HT-29, 72 h) it was greater than 100 µM.
As for `O=[N+]([O-])c1ccc(Cn2cc(COc3ccc(C=NNc4ncnc5ccccc45)cc3)nn2)cc1` [Compound 8f, 2-(4-((1-(4-Nitrobenzyl)-1H-1,2,3-triazol-4-yl)methoxy)benzylidene)-1-(quinazolin-4-yl)hydrazine], the melting point worked out at 208.4 °C. For the same molecule, the IC50 in data set [1] (Homo sapiens, ASPC1, 72 h) is greater than 100 µM. Besides, in data set [2] (Homo sapiens, MIA PaCa-2, 72 h), the IC50 was greater than 100 µM. Also, in data set [3] (Homo sapiens, EBC-1, 72 h), the IC50 is greater than 100 µM. In data set [4] (Homo sapiens, MKN-45, 72 h), the IC50 worked out at 56.6 ± 6.5 µM. In addition, the IC50 in data set [5] (Homo sapiens, K562, 72 h) is greater than 100 µM. The IC50 in data set [6] (Homo sapiens, HT-29, 72 h) was greater than 100 µM.
With `C(=NNc1ncnc2ccccc12)c1ccc(OCc2cn(Cc3ccccc3)nn2)cc1` [Compound 8g, 2-(4-((1-Benzyl-1H-1,2,3-triazol-4-yl)methoxy)benzylidene)-1-(quinazolin-4-yl)hydrazine], the melting point worked out at 218.6 °C. Also, the IC50 in data set [1] (Homo sapiens, ASPC1, 72 h) was greater than 100 µM. Besides, in data set [2] (Homo sapiens, MIA PaCa-2, 72 h), the IC50 was greater than 100 µM. The IC50 in data set [3] (Homo sapiens, EBC-1, 72 h) was greater than 100 µM. Moreover, the IC50 in data set [4] (Homo sapiens, MKN-45, 72 h) was determined as 67.7 ± 4.6 µM. For the same molecule, the IC50 in data set [5] (Homo sapiens, K562, 72 h) came to 96.6 ± 1.1 µM. Further, the IC50 in data set [6] (Homo sapiens, HT-29, 72 h) is greater than 100 µM.
For `O=C1c2ccccc2C(=O)N1CCCn1cc(COc2ccccc2C=NNc2ncnc3ccccc23)nn1` [Compound 8i], the IC50 is greater than 100 µM in data set [1] (72 h); greater than 100 µM in data set [2] (72 h); 89.4 ± 4.3 µM in data set [3] (72 h); greater than 100 µM in data set [4] (72 h); 86.2 ± 3 µM in data set [5] (72 h); greater than 100 µM in data set [6] (72 h).
For `C[C@@H](Oc1cc(-c2cnn(C3CCNCC3)c2)cnc1N)c1c(Cl)ccc(F)c1Cl` [Crizotinib, reference compound], the IC50 in data set [1] (Homo sapiens, ASPC1, 72 h) stood at 2.45 ± 1.3 µM; in data set [2] (Homo sapiens, MIA PaCa-2, 72 h), 2.36 ± 1.2 µM; in data set [3] (Homo sapiens, EBC-1, 72 h) it was 0.006 ± 0.001 µM; in data set [4] (Homo sapiens, MKN-45, 72 h), 0.05 ± 0.003 µM.
